Tested on: 883617-216-R-J1-PDC complex spheroids, growth, % test/control
Assay: Anticancer human tumor 883617-216-R-J1-PDC patient-derived bladder carcinoma cell line growth inhibition [AhR]
Conditions: for IC50: curve of first compound; for viability, T/C: stronger effect = lower value
How it was run: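 Agents were dosed in half-log steps down from roughly clinical Cmax, or from 10 microM where Cmax was unknown, alone and with AhR antagonists. Read-out: percent test/control growth of tumor spheroids containing HUVEC and MSC stromal cells.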

[1] = second compound 0.1 µM, first compound 0.0316 µM
[2] = second compound 0.1 µM, first compound 0.1 µM
[3] = second compound 0.1 µM, first compound 0.316 µM
[4] = second compound 0.1 µM, first compound 1 µM
[5] = second compound 0.1 µM, first compound 3.16 µM
[6] = second compound 0.1 µM, first compound 10 µM
[7] = second compound 0.316 µM, first compound 0.0316 µM
[8] = second compound 0.316 µM, first compound 0.1 µM
[9] = second compound 0.316 µM, first compound 0.316 µM
[10] = second compound 0.316 µM, first compound 1 µM
[11] = second compound 0.316 µM, first compound 3.16 µM
[12] = second compound 0.316 µM, first compound 10 µM
[13] = second compound 1 µM, first compound 0.0316 µM
[14] = second compound 1 µM, first compound 0.1 µM
[15] = second compound 1 µM, first compound 0.316 µM
[16] = second compound 1 µM, first compound 1 µM
[17] = second compound 1 µM, first compound 3.16 µM
[18] = second compound 1 µM, first compound 10 µM
[19] = second compound 3.16 µM, first compound 0.0316 µM
[20] = second compound 3.16 µM, first compound 0.1 µM
[21] = second compound 3.16 µM, first compound 0.316 µM
[22] = second compound 3.16 µM, first compound 1 µM
[23] = second compound 3.16 µM, first compound 3.16 µM
[24] = second compound 3.16 µM, first compound 10 µM
[25] = second compound 10 µM, first compound 0.0316 µM
[26] = second compound 10 µM, first compound 0.1 µM
[27] = second compound 10 µM, first compound 0.316 µM
[28] = second compound 10 µM, first compound 1 µM
[29] = second compound 10 µM, first compound 3.16 µM
[30] = second compound 10 µM, first compound 10 µM
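Also: exposure lasted 7 days after dosing on day 3 of spheroid growth.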

Compound	IC50 (second compound 0.1 µM) [µM]	IC50 (second compound 0.316 µM) [µM]	IC50 (second compound 1 µM) [µM]	IC50 (second compound 3.16 µM) [µM]	IC50 (second compound 10 µM) [µM]	viability, T/C [1] [%]	viability, T/C [2] [%]	viability, T/C [3] [%]	viability, T/C [4] [%]	viability, T/C [5] [%]	viability, T/C [6] [%]	viability, T/C [7] [%]	viability, T/C [8] [%]	viability, T/C [9] [%]	viability, T/C [10] [%]	viability, T/C [11] [%]	viability, T/C [12] [%]	viability, T/C [13] [%]	viability, T/C [14] [%]	viability, T/C [15] [%]	other results
COc1cc(C2c3cc4c(cc3C(OC3OC5COC(C)OC5C(O)C3O)C3COC(=O)C23)OCO4)cc(OC)c1O (stereo not given) + Cc1cncc(-c2nc(NCCc3c[nH]c4ccccc34)c3ncn(C(C)C)c3n2)c1	> 10	> 10	> 10	> 10	0.0688	77.3	81.3	70	66.8	69.6	57.4	84.9	81.1	73.6	65.3	64.1	60.9	91.4	86.4	78.7	viability, T/C [16]: 71.5%; viability, T/C [17]: 81.4%; viability, T/C [18]: 64.7%; viability, T/C [19]: 89.9%; viability, T/C [20]: 89%; viability, T/C [21]: 80.1%; viability, T/C [22]: 79%; viability, T/C [23]: 70%; viability, T/C [24]: 65.6%; viability, T/C [25]: 51.4%; viability, T/C [26]: 50.3%; viability, T/C [27]: 49.9%; viability, T/C [28]: 39.1%; viability, T/C [29]: 41.5%; viability, T/C [30]: 45.5%
CC1(C)CCC(CN2CCN(c3ccc(C(=O)NS(=O)(=O)c4ccc(NCC5CCOCC5)c([N+](=O)[O-])c4)c(Oc4cnc5[nH]ccc5c4)c3)CC2)=C(c2ccc(Cl)cc2)C1 + CC(CO)NC(=O)c1cc(-c2ccc(Cl)cc2)nn(-c2cnn(C)c2)c1=O	> 10	> 10	> 10	> 10	> 10	77	90.8	136	95.4	90.3	59.4	83.2	93.9	102	88.2	96.9	68.5	90.6	114	152	viability, T/C [16]: 71.4%; viability, T/C [17]: 82.4%; viability, T/C [18]: 78.2%; viability, T/C [19]: 79.5%; viability, T/C [20]: 132%; viability, T/C [21]: 97.1%; viability, T/C [22]: 115%; viability, T/C [23]: 83.4%; viability, T/C [24]: 68.7%; viability, T/C [25]: 91.9%; viability, T/C [26]: 143%; viability, T/C [27]: 171%; viability, T/C [28]: 83.9%; viability, T/C [29]: 122%; viability, T/C [30]: 103%
